Measured values taken from US20230032101A1, “FIVE-MEMBERED HETEROCYCLIC OXOCARBOXYLIC ACID COMPOUND AND MEDICAL USE THEREOF” (Shanghai Institute of Materia Medica, Chinese Academy of …, priority 2019, published 2023).

Tested on: type I interferon pathway (ISG) in human THP1-Blue-ISG cells
Experiment: Activation of type I interferon pathway (ISG) in human THP1-Blue-ISG cells (Quanti-Blue, OD650)
Assay type: cell-based
Conditions: 10 μM, 24 h; Compound OD650/Control OD650; ≥2 times considered valid
Description: 20 μL of compound diluted with physiological saline was added to each well of a 96-well cell culture plate, the positive control compound was ADU-S100, and the solvent control group was added with 20 μL of physiological saline containing DMSO. THP1-Blue-ISG cells were counted, the cell concentration was adjusted to 5×10^5/mL, and 180 μL of cells were added to each well for incubation. Therefore, the final volume of each test well was 200 μL, the content of DMSO was 0.1%/0.5%, the test concentration of the compound was 10/50 μM, and the positive control compound was ADU-S100 at a final concentration of 10 μM, and incubated for 24 hours for detection.
After 24 hours, 20 μL of the culture solution was took out from each well to a new 96-well plate, 180 μL of chromogenic solution Quanti-Blue was added, placed in a 37° C. incubator, and the OD650 value was measured after 0.5-2 hours. The experiment was repeated twice.
The experimental results were used to evaluate the ability of compounds to induce the secretion of type I interferon pathway (ISG) by the Fold Change, which was calculated as follows:
Fold Change=Compound OD650/Control OD650, wherein the results of ≥2 times were considered valid.

Row | Structure (SMILES) | Fold Change
1 | Nc1ncnc2c1ncn2[C@@H]1O[C@@H]2COP(=O)([S-])O[C@@H]3[C@H](O)[C@@H](COP([O-])(=S)O[C@H]2[C@H]1O)O[C@H]3n1cnc2c(N)ncnc21.[Na+].[Na+] (stereo partly shown) [ADU-S100, reference compound] | 12.45@10 μM

Same assay, conditions: Homo sapiens, THP1-Blue ISG; 10 μM, 24 h; Compound OD650/Control OD650; ≥2 times considered valid; read-out: Fold Change

Row | Structure (SMILES) | fold induction at 10 µM
2 | O=C(O)CC(=O)c1cc(-c2c[nH]c3ccc(F)cc23)cs1 [Example I-4, 3-(4-(5-fluoro-1H-indol-3-yl)thiophen-2-yl)-3-oxopropionic acid] | 9.95
3 | COC(=O)CC(=O)c1cc(-c2c[nH]c3ccc(F)cc23)co1 [Example I-40, methyl 3-(4-(5-fluoro-1H-indol-3-yl)furan-2-yl)-3-oxopropanoate] | 53.7
4 | COC(=O)CC(=O)c1cc(-c2c[nH]c3ccc(F)cc23)cs1 [Example I-19, methyl 3-(4-(5-fluoro-1H-indol-3-yl)thiophen-2-yl)-3-oxopropionate] | 10
5 | COC(=O)CC(=O)c1cc(-c2c[nH]c3cccc(F)c23)co1 [Example I-39, methyl 3-(4-(4-fluoro-1H-indol-3-yl)furan-2-yl)-3-oxopropanoate] | 59.5
6 | O=C(O)CC(=O)c1cc(-c2c[nH]c3ccccc23)cs1 [Example I-1, 3-(4-(1H-indol-3-yl)thiophen-2-yl)-3-oxopropionic Acid] | 14.3
7 | COC(=O)CC(=O)c1cc(-c2c[nH]c3c(F)cccc23)cs1 [Example I-18, methyl 3-(4-(7-fluoro-1H-indol-3-yl)thiophen-2-yl)-3-oxopropanoate] | 9.8
8 | COC(=O)CC(=O)c1cc(-c2c[nH]c3c(F)cccc23)co1 [Example I-38, methyl 3-(4-(7-fluoro-1H-indol-3-yl)furan-2-yl)-3-oxopropanoate] | 77.2
9 | COC(=O)CC(=O)c1cc(-c2c[nH]c3ccc(OC)cc23)co1 [Example I-43, methyl 3-(4-(5-methoxy-1H-indol-3-yl)furan-2-yl)-3-oxopropanoate] | 23.3
10 | O=C(O)CC(=O)c1cc(-c2c[nH]c3cc(F)ccc23)cs1 [Example I-2, 3-(4-(6-fluoro-1H-indol-3-yl)thiophen-2-yl)-3-oxopropionic acid] | 11
11 | COC(=O)CC(=O)c1cc(-c2c[nH]c3cc(F)ccc23)cs1 [Example I-17, methyl 3-(4-(6-fluoro-1H-indol-3-yl)thiophen-2-yl)-3-oxopropionate] | 11
12 | COC(=O)CC(=O)c1cc(-c2c[nH]c3cc(F)ccc23)co1 [Example I-37, methyl 3-(4-(6-fluoro-1H-indol-3-yl)furan-2-yl)-3-oxopropanoate] | 71.5
13 | COC(=O)CC(=O)c1cc(-c2c[nH]c3ccc(OC)cc23)cs1 [Example I-42, methyl 3-(4-(5-methoxy-1H-indol-3-yl)thiophen-2-yl)-3-oxopropanoate] | 61.8
14 | COC(=O)CCC(=O)c1cc(-c2c[nH]c3c(F)cccc23)cs1 [I′-50, Methyl 4-(4-(7-fluoro-1H-indol-3-yl)thiophen-2-yl)-4-oxobutyrate] | 68.1
15 | COC(=O)CC(=O)c1cc(-c2c[nH]c3ccccc23)cs1 [Example I-16, methyl 3-(4-(1H-indol-3-yl)thiophen-2-yl)-3-oxopropionate] | 14.3
16 | O=C(O)CC(=O)c1cc(-c2c[nH]c3c(F)cccc23)cs1 [Example I-3, 3-(4-(7-fluoro-1H-indol-3-yl)thiophen-2-yl)-3-oxopropionic acid] | 9.82

Same assay, conditions: Homo sapiens, THP1-Blue ISG; 50 μM, 24 h; Compound OD650/Control OD650; ≥2 times considered valid; read-out: Fold Change

Row | Structure (SMILES) | fold induction at 50 µM
17 | O=C(O)CCC(=O)c1cc(-c2cccc3sccc23)cs1 [I′-10, 4-(4-(benzo[b]thiophen-4-yl)thiophen-2-yl)-4-oxobutyric Acid] | 15.1
18 | O=C(O)CCC(=O)c1cc(-c2csc3ccccc23)cs1 [I′-4, 4-(4-(benzo[b]thiophen-3-yl)thiophen-2-yl)-4-oxobutyric Acid] | 18.4
19 | O=C(O)CCCC(=O)c1cc(-c2c[nH]c3c(F)cccc23)cs1 [Example I-14, 5-(4-(7-fluoro-1H-indol-3-yl)thiophen-2-yl)-5-oxopentanoic Acid] | 1.96
